The source of these data is the supplement of paper PMC11451515.

Common to all, as to assay: AUC of viability dose-response curve (% viability x log10 dose units); higher = less sensitive
Common to all, as to conditions: 48 h

In one test the test system is NOMO1. Summed up:
(§1)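 Leukemia cells adapted to each medium (500 or 1000 cells/well, 1536-well plates) were exposed to library compounds in DMSO for 48 h at 37°C at 11 threefold doses, 47 μM to 0.79 nM. Luminescence by CellTiter-Glo One was normalised per plate to DMSO and cell-free wells, then fitted with a four-parameter log-logistic curve on log10 dose. Curves above full viability were scaled and quality-control failures removed before area under the curve was integrated by trapezoidal rule.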

For the next test, the system named is P12-Ichikawa. Summed up:
as §1

The next test deals with SEM cells. Summed up:
as §1

Setting [1] is: RPMI 5 mM glucose + 10% dialyzed FBS.

Regarding `CC(C)[C@]12O[C@H]1[C@@H]3O[C@@]34[C@@]5(C)CC\C6=C(COC6=O)/[C@@H]5C[C@@H]7O[C@]47[C@@H]2O`, the “AUC of viability dose-response curve” value in the test with NOMO1 (HPLM + 10% dialyzed FBS) turned out to be 49.2; in the test on NOMO1 (RPMI 5 mM glucose + 10% FBS) it was 49; in the test with NOMO1 (setting [1]), 45.7; with P12-Ichikawa (HPLM + 10% dialyzed FBS), 59; in the test on P12-Ichikawa (RPMI 5 mM glucose + 10% FBS) it was 56.8; in the test on P12-Ichikawa (setting [1]) it was 62.8.

Regarding `COc1c(N2C[C@@H]3CCCN[C@@H]3C2)c(F)cc2c(=O)c(C(=O)O)cn(C3CC3)c12.Cl.O`, the “AUC of viability dose-response curve” value amounted to 390 in the test with NOMO1 (HPLM + 10% dialyzed FBS); 456 in the test on NOMO1 (RPMI 5 mM glucose + 10% FBS); 437 in the test with NOMO1 (setting [1]); 434 in the test with P12-Ichikawa (HPLM + 10% dialyzed FBS); 394 in the test on P12-Ichikawa (RPMI 5 mM glucose + 10% FBS); 399 in the test with P12-Ichikawa (setting [1]).

Consider `c1coc(CNc2ncnc3nc[nH]c23)c1`, for which the “AUC of viability dose-response curve” value with SEM cells (HPLM + 10% dialyzed FBS) was 460; in the test on SEM cells (RPMI 5 mM glucose + 10% FBS) it was 469; in the test with SEM cells (setting [1]), 473; in the test on NOMO1 (HPLM + 10% dialyzed FBS), 455; in the test on NOMO1 (RPMI 5 mM glucose + 10% FBS), 461; in the test on NOMO1 (setting [1]) it was 445. Moreover, the “AUC of viability dose-response curve” value in the test on P12-Ichikawa (HPLM + 10% dialyzed FBS) came to 437; in the test on P12-Ichikawa (RPMI 5 mM glucose + 10% FBS), 464; with P12-Ichikawa (setting [1]), 467.

Consider `NCCOc1cc(C(=O)Nc2cc(OCCN)c3ccccc3n2)nc(C(=O)Nc2cc(OCCN)c3ccccc3n2)c1`, for which the results for the “AUC of viability dose-response curve” value in the test with SEM cells (HPLM + 10% dialyzed FBS), in the test with SEM cells (RPMI 5 mM glucose + 10% FBS) and in the test on SEM cells (setting [1]) were 148, 122 and 170, respectively.

On to `Cc1cc(/C=c2/sc3nc4ccccc4n3c2=O)c(C)n1-c1ccccc1`, for which the “AUC of viability dose-response curve” value in the test on SEM cells (HPLM + 10% dialyzed FBS) amounted to 473; in the test with SEM cells (RPMI 5 mM glucose + 10% FBS) it was 466; in the test on SEM cells (setting [1]), 473; with NOMO1 (HPLM + 10% dialyzed FBS), 472; in the test with NOMO1 (RPMI 5 mM glucose + 10% FBS), 455; with NOMO1 (setting [1]) it was 472. Moreover, the “AUC of viability dose-response curve” value with P12-Ichikawa (HPLM + 10% dialyzed FBS) turned out to be 471; with P12-Ichikawa (RPMI 5 mM glucose + 10% FBS), 476; in the test with P12-Ichikawa (setting [1]) it was 467.

Take `O=C(O)c1cccc(-c2noc(-c3ccccc3F)n2)c1`: the “AUC of viability dose-response curve” value in the test on SEM cells (HPLM + 10% dialyzed FBS) amounted to 454; with SEM cells (RPMI 5 mM glucose + 10% FBS), 457; in the test with SEM cells (setting [1]), 472; in the test on NOMO1 (HPLM + 10% dialyzed FBS) it was 456; with NOMO1 (RPMI 5 mM glucose + 10% FBS), 451; in the test with NOMO1 (setting [1]), 465. The “AUC of viability dose-response curve” value is 470 with P12-Ichikawa (HPLM + 10% dialyzed FBS), 465 in the test on P12-Ichikawa (RPMI 5 mM glucose + 10% FBS) and 465 in the test on P12-Ichikawa (setting [1]).

As for `Cc1nc(-c2ccc(-c3ccc(C(=O)N4CCc5cc6c(cc54)C4(CCN(C)CC4)CO6)cc3)c(C)c2)no1`, the “AUC of viability dose-response curve” value with SEM cells (HPLM + 10% dialyzed FBS) is 420; in the test with SEM cells (RPMI 5 mM glucose + 10% FBS), 467; in the test with SEM cells (setting [1]) it was 439; in the test on NOMO1 (HPLM + 10% dialyzed FBS) it was 454; with NOMO1 (RPMI 5 mM glucose + 10% FBS), 477; in the test with NOMO1 (setting [1]), 449. Further, the “AUC of viability dose-response curve” value with P12-Ichikawa (HPLM + 10% dialyzed FBS) is 464; with P12-Ichikawa (RPMI 5 mM glucose + 10% FBS), 460; in the test on P12-Ichikawa (setting [1]), 447.

In the case of `CN(C[C@@H]1COCCO1)[S+]([O-])(=O)NC2=CC3=C(C=C2)\C=C/C4=C(C=C(C=N4)C5=C[N](C)N=C5)C3=O`, the “AUC of viability dose-response curve” value in the test on SEM cells (HPLM + 10% dialyzed FBS) stood at 314; in the test with SEM cells (RPMI 5 mM glucose + 10% FBS), 301; in the test with SEM cells (setting [1]), 292; in the test on NOMO1 (HPLM + 10% dialyzed FBS), 324; with NOMO1 (RPMI 5 mM glucose + 10% FBS), 371; with NOMO1 (setting [1]), 355. In addition, the “AUC of viability dose-response curve” value in the test on P12-Ichikawa (HPLM + 10% dialyzed FBS) was 379; with P12-Ichikawa (RPMI 5 mM glucose + 10% FBS), 374; in the test on P12-Ichikawa (setting [1]) it was 357.

As to `OC(=O)CNC(=O)\C1=C(/O)C2=CC=CC=C2N(CC3=CC=CC=C3)C1=O`, the “AUC of viability dose-response curve” value in the test on NOMO1 (HPLM + 10% dialyzed FBS) amounted to 466; in the test on NOMO1 (RPMI 5 mM glucose + 10% FBS), 430; with NOMO1 (setting [1]), 450; in the test with P12-Ichikawa (HPLM + 10% dialyzed FBS), 462; in the test on P12-Ichikawa (RPMI 5 mM glucose + 10% FBS), 456; with P12-Ichikawa (setting [1]) it was 433.

Turning to `Cc1nc2ccc(CN(C)c3ccc(C(=O)N[C@@H](CCC(=O)O)C(=O)O)s3)cc2c(=O)[nH]1`, the “AUC of viability dose-response curve” value came out at 298 in the test on SEM cells (HPLM + 10% dialyzed FBS); 432 with SEM cells (RPMI 5 mM glucose + 10% FBS); 295 with SEM cells (setting [1]); 315 with NOMO1 (HPLM + 10% dialyzed FBS); 413 in the test on NOMO1 (RPMI 5 mM glucose + 10% FBS); 305 with NOMO1 (setting [1]). Moreover, the “AUC of viability dose-response curve” value in the test on P12-Ichikawa (HPLM + 10% dialyzed FBS) was 287; with P12-Ichikawa (RPMI 5 mM glucose + 10% FBS), 331; with P12-Ichikawa (setting [1]), 321.

Consider `CCC[C@H](Nc1nc(-c2ccc(NC(=O)NCC)c(OC)c2)ncc1C)c1cccnc1`, for which the “AUC of viability dose-response curve” value was 287 in the test on NOMO1 (HPLM + 10% dialyzed FBS); 251 with NOMO1 (RPMI 5 mM glucose + 10% FBS); 251 in the test on NOMO1 (setting [1]); 195 in the test on P12-Ichikawa (HPLM + 10% dialyzed FBS); 194 with P12-Ichikawa (RPMI 5 mM glucose + 10% FBS); 205 in the test with P12-Ichikawa (setting [1]).

For `COc1cc2cc(c1Cl)N(C)C(=O)C[C@H](OC(=O)C(C)C)[C@]1(C)O[C@@H]1[C@H](C)[C@@H]1C[C@@](O)(NC(=O)O1)[C@H](OC)/C=C/C=C(\C)C2`, the “AUC of viability dose-response curve” value with SEM cells (HPLM + 10% dialyzed FBS) turned out to be 66.3; in the test with SEM cells (RPMI 5 mM glucose + 10% FBS), 51.6; in the test on SEM cells (setting [1]) it was 49.3; in the test on P12-Ichikawa (HPLM + 10% dialyzed FBS), 37.9; in the test with P12-Ichikawa (RPMI 5 mM glucose + 10% FBS), 42.6; in the test on P12-Ichikawa (setting [1]), 59.7.

For the compound `Clc1ccc(C(c2ccccc2Cl)C(Cl)Cl)cc1` (stereo not given), the “AUC of viability dose-response curve” value with NOMO1 (HPLM + 10% dialyzed FBS) turned out to be 427; in the test on NOMO1 (RPMI 5 mM glucose + 10% FBS), 456; in the test with NOMO1 (setting [1]), 448; in the test with P12-Ichikawa (HPLM + 10% dialyzed FBS) it was 452; in the test with P12-Ichikawa (RPMI 5 mM glucose + 10% FBS), 436; in the test with P12-Ichikawa (setting [1]) it was 432.

`CCC(=O)NC[C@H](Cc1ccc(OCCc2nc(-c3ccccc3)oc2C)cc1)N/C(C)=C\C(=O)c1ccc(C(F)(F)F)cc1`: the “AUC of viability dose-response curve” value in the test on NOMO1 (HPLM + 10% dialyzed FBS) was determined as 433; in the test with NOMO1 (RPMI 5 mM glucose + 10% FBS), 438; with NOMO1 (setting [1]), 462; with P12-Ichikawa (HPLM + 10% dialyzed FBS), 410; with P12-Ichikawa (RPMI 5 mM glucose + 10% FBS) it was 406; with P12-Ichikawa (setting [1]) it was 398.

With `CC(C)C[C@H](CC(=O)O)C(=O)N[C@@H](Cc1c[nH]c2ccccc12)C(=O)N[C@@H](C)c1ccccc1`, the “AUC of viability dose-response curve” value with NOMO1 (HPLM + 10% dialyzed FBS) amounted to 428; in the test on NOMO1 (RPMI 5 mM glucose + 10% FBS), 446; in the test on NOMO1 (setting [1]), 465; in the test with P12-Ichikawa (HPLM + 10% dialyzed FBS) it was 413; in the test with P12-Ichikawa (RPMI 5 mM glucose + 10% FBS) it was 419; in the test with P12-Ichikawa (setting [1]), 421.

Regarding `Cc1cnc(Nc2cccc(CN3CCOCC3)c2)nc1Nc1cccc([S+](=O)([O-])NC(C)(C)C)c1`, the “AUC of viability dose-response curve” value amounted to 329 in the test on SEM cells (HPLM + 10% dialyzed FBS), 345 in the test with SEM cells (RPMI 5 mM glucose + 10% FBS) and 308 in the test with SEM cells (setting [1]).

`COc1cc(N2CCC(N3CCN(C)CC3)CC2)ccc1Nc1ncc(Cl)c(Nc2ccccc2[S+](=O)([O-])C(C)C)n1`: the “AUC of viability dose-response curve” value in the test on SEM cells (HPLM + 10% dialyzed FBS) was found to be 284; in the test with SEM cells (RPMI 5 mM glucose + 10% FBS), 273; in the test on SEM cells (setting [1]), 300.

As to `CCC(=O)O[C@@]1(CC[C@H]2[C@@H]3CCC/4=C/C(=O)CC[C@]4(C)[C@H]3CC[C@]12C)C(=O)CO`, the “AUC of viability dose-response curve” value with NOMO1 (HPLM + 10% dialyzed FBS) was determined as 457; in the test with NOMO1 (RPMI 5 mM glucose + 10% FBS), 467; with NOMO1 (setting [1]), 458; in the test on P12-Ichikawa (HPLM + 10% dialyzed FBS) it was 454; in the test with P12-Ichikawa (RPMI 5 mM glucose + 10% FBS), 452; in the test with P12-Ichikawa (setting [1]) it was 455.

For `O=C1c2ccccc2-c2n[nH]c3cccc1c23`, the “AUC of viability dose-response curve” value with NOMO1 (HPLM + 10% dialyzed FBS) is 429; in the test with NOMO1 (RPMI 5 mM glucose + 10% FBS), 433; with NOMO1 (setting [1]), 449; in the test on P12-Ichikawa (HPLM + 10% dialyzed FBS), 416; in the test with P12-Ichikawa (RPMI 5 mM glucose + 10% FBS), 401; in the test with P12-Ichikawa (setting [1]) it was 422.

For `c1ccc2c(CN3CCNCC3)cccc2c1`, the “AUC of viability dose-response curve” value with SEM cells (HPLM + 10% dialyzed FBS) was 465; in the test on SEM cells (RPMI 5 mM glucose + 10% FBS), 473; in the test with SEM cells (setting [1]) it was 454; with NOMO1 (HPLM + 10% dialyzed FBS) it was 462; in the test with NOMO1 (RPMI 5 mM glucose + 10% FBS) it was 455; in the test with NOMO1 (setting [1]), 456.

In the case of `COc1cc2c(cc1O)CCC1C2CC[C@@]2(C)C1CC[C@@H]2O` (stereo not given in full), the “AUC of viability dose-response curve” value with NOMO1 (HPLM + 10% dialyzed FBS) is 390; with NOMO1 (RPMI 5 mM glucose + 10% FBS), 412; in the test on NOMO1 (setting [1]), 404; in the test on P12-Ichikawa (HPLM + 10% dialyzed FBS) it was 359; with P12-Ichikawa (RPMI 5 mM glucose + 10% FBS), 368; in the test on P12-Ichikawa (setting [1]), 382.
